According to ChEMBL document CHEMBL3885881, “DrugMatrix”:

Species: Rattus norvegicus
Assay: DrugMatrix - Regimen: Daily Repeat
Type: toxicity, organism-based, Sprague-Dawley
Parameters: regimen Daily Repeat, gender Male, age 6-8 weeks
Details: in vivo, po, route oral GAVAGE, vehicle .5 % CMC; for TOTAL PROTEIN / ALANINE AMINOTRANSFERASE / ALBUMIN / ALKALINE PHOSPHATASE / ASPARTATE AMINOTRANSFERASE / CARBON DIOXIDE / CHLORIDE / CHOLESTEROL / CREATINE PHOSPHOKINASE / CREATININE / GLUCOSE / LACTATE DEHYDROGENASE / LIPASE / PHOSPHORUS / POTASSIUM / SODIUM / TOTAL BILIRUBIN / BLOOD UREA NITROGEN: tissue Plasma; for ABSOLUTE BASOPHIL / ABSOLUTE EOSINOPHIL / ABSOLUTE LYMPHOCYTE / ABSOLUTE MONOCYTE / ABSOLUTE SEGMENTED NEUTROPHIL / BASOPHIL / EOSINOPHIL / ERYTHROCYTE COUNT / HEMATOCRIT / HEMOGLOBIN / LEUKOCYTE COUNT / LYMPHOCYTE / MEAN CORPUSCULAR HEMOGLOBIN / MEAN CORPUSCULAR HEMOGLOBIN CONCENTRATION / MEAN CORPUSCULAR VOLUME / MONOCYTE / NEUTROPHIL / NUCLEATED RED BLOOD CELLS / PLATELET COUNT: tissue Blood
[1] = 25 mg/kg, 120 h, dose level Low, time 5 day
[2] = 1500 mg/kg, 72 h, dose level High, time 3 day
[3] = 1500 mg/kg, 120 h, dose level High, time 5 day

COc1cc(/C=C/C(=O)O)ccc1O [FERULATE]
TOTAL PROTEIN (25 mg/kg, 72 h, dose level Low, time 3 day): 5.97 G/DL
ABSOLUTE BASOPHIL [1]: 0 CELLS/uL
ABSOLUTE EOSINOPHIL [1]: 170 CELLS/uL
ABSOLUTE LYMPHOCYTE [1]: 14805 CELLS/uL
ABSOLUTE MONOCYTE [1]: 286 CELLS/uL
ABSOLUTE SEGMENTED NEUTROPHIL [1]: 1439 CELLS/uL
BASOPHIL [1]: 0%
EOSINOPHIL [1]: 1.33%
ERYTHROCYTE COUNT [1]: 5.63 x10E6/uL
HEMATOCRIT [1]: 35.7%
HEMOGLOBIN [1]: 13.7 G/DL
LEUKOCYTE COUNT [1]: 16.7 x10E3/uL
LYMPHOCYTE [1]: 87.67%
MEAN CORPUSCULAR HEMOGLOBIN [1]: 24.43 pg
MEAN CORPUSCULAR HEMOGLOBIN CONCENTRATION [1]: 38.37 G/DL
MEAN CORPUSCULAR VOLUME [1]: 63.63 fL
MONOCYTE [1]: 1.67%
NEUTROPHIL [1]: 9.33%
NUCLEATED RED BLOOD CELLS [1]: 0.33 /100WBC
PLATELET COUNT [1]: 1379.67 x10E3/uL
ALANINE AMINOTRANSFERASE [1]: 52.67 u/L
ALBUMIN [1]: 4.27 G/DL
ALKALINE PHOSPHATASE [1]: 350.33 u/L
ASPARTATE AMINOTRANSFERASE [1]: 91.33 u/L
CARBON DIOXIDE [1]: 28 mmol/L
CHLORIDE [1]: 104.67 MEQ/L
CHOLESTEROL [1]: 79.67 mg/dL
CREATINE PHOSPHOKINASE [1]: 317 u/L
CREATININE [1]: 0.18 mg/dL
GLUCOSE [1]: 160.67 mg/dL
LACTATE DEHYDROGENASE [1]: 421.67 u/L
LIPASE [1]: 9.33 u/L
PHOSPHORUS [1]: 12.9 mg/dL
POTASSIUM [1]: 6.65 MEQ/L
SODIUM [1]: 144.87 MEQ/L
TOTAL BILIRUBIN [1]: 0.17 mg/dL
TOTAL PROTEIN [1]: 5.93 G/DL
ABSOLUTE BASOPHIL [2]: 0 CELLS/uL
ABSOLUTE EOSINOPHIL [2]: 42 CELLS/uL
ABSOLUTE LYMPHOCYTE [2]: 12584.67 CELLS/uL
ABSOLUTE MONOCYTE [2]: 382 CELLS/uL
ABSOLUTE SEGMENTED NEUTROPHIL [2]: 1124.67 CELLS/uL
BASOPHIL [2]: 0%
EOSINOPHIL [2]: 0.33%
ERYTHROCYTE COUNT [2]: 5.75 x10E6/uL
HEMATOCRIT [2]: 35.2%
HEMOGLOBIN [2]: 13.03 G/DL
LEUKOCYTE COUNT [2]: 14.13 x10E3/uL
LYMPHOCYTE [2]: 89%
MEAN CORPUSCULAR HEMOGLOBIN [2]: 22.7 pg
MEAN CORPUSCULAR HEMOGLOBIN CONCENTRATION [2]: 37.03 G/DL
MEAN CORPUSCULAR VOLUME [2]: 61.23 fL
MONOCYTE [2]: 2.67%
NEUTROPHIL [2]: 8%
NUCLEATED RED BLOOD CELLS [2]: 0.33 /100WBC
PLATELET COUNT [2]: 1425.67 x10E3/uL
ALANINE AMINOTRANSFERASE [2]: 67.67 u/L
ALBUMIN [2]: 4.13 G/DL
ALKALINE PHOSPHATASE [2]: 355 u/L
ASPARTATE AMINOTRANSFERASE [2]: 102.67 u/L
BLOOD UREA NITROGEN [2]: 13.67 mg/dL
CARBON DIOXIDE [2]: 25.67 mmol/L
CHLORIDE [2]: 103.33 MEQ/L
CHOLESTEROL [2]: 81.67 mg/dL
CREATINE PHOSPHOKINASE [2]: 489 u/L
CREATININE [2]: 0.15 mg/dL
GLUCOSE [2]: 140.67 mg/dL
LACTATE DEHYDROGENASE [2]: 475.67 u/L
LIPASE [2]: 10 u/L
PHOSPHORUS [2]: 10.73 mg/dL
POTASSIUM [2]: 6.23 MEQ/L
SODIUM [2]: 143.87 MEQ/L
TOTAL BILIRUBIN [2]: 0.2 mg/dL
TOTAL PROTEIN [2]: 5.5 G/DL
ABSOLUTE BASOPHIL [3]: 0 CELLS/uL
ABSOLUTE EOSINOPHIL [3]: 97 CELLS/uL
ABSOLUTE LYMPHOCYTE [3]: 18780.67 CELLS/uL
ABSOLUTE MONOCYTE [3]: 55.33 CELLS/uL
ABSOLUTE SEGMENTED NEUTROPHIL [3]: 967 CELLS/uL
BASOPHIL [3]: 0%
EOSINOPHIL [3]: 0.33%
ERYTHROCYTE COUNT [3]: 6.33 x10E6/uL
HEMATOCRIT [3]: 38.23%
HEMOGLOBIN [3]: 14.4 G/DL
LEUKOCYTE COUNT [3]: 19.9 x10E3/uL
LYMPHOCYTE [3]: 94%
MEAN CORPUSCULAR HEMOGLOBIN [3]: 22.73 pg
MEAN CORPUSCULAR HEMOGLOBIN CONCENTRATION [3]: 37.67 G/DL
MEAN CORPUSCULAR VOLUME [3]: 60.37 fL
MONOCYTE [3]: 0.33%
NEUTROPHIL [3]: 5.33%
NUCLEATED RED BLOOD CELLS [3]: 0.33 /100WBC
PLATELET COUNT [3]: 1095 x10E3/uL
ALANINE AMINOTRANSFERASE [3]: 64.33 u/L
ALBUMIN [3]: 4.57 G/DL
ALKALINE PHOSPHATASE [3]: 399 u/L
ASPARTATE AMINOTRANSFERASE [3]: 93.67 u/L
BLOOD UREA NITROGEN [3]: 16.33 mg/dL
CARBON DIOXIDE [3]: 26 mmol/L
CHLORIDE [3]: 107 MEQ/L
CHOLESTEROL [3]: 64.67 mg/dL
CREATINE PHOSPHOKINASE [3]: 723.33 u/L
CREATININE [3]: 0.21 mg/dL
GLUCOSE [3]: 164.33 mg/dL
LACTATE DEHYDROGENASE [3]: 166.67 u/L
LIPASE [3]: 9.67 u/L
PHOSPHORUS [3]: 11.4 mg/dL
POTASSIUM [3]: 6.41 MEQ/L
SODIUM [3]: 146.6 MEQ/L
TOTAL BILIRUBIN [3]: 0.2 mg/dL
TOTAL PROTEIN [3]: 6.17 G/DL
